The values that follow come from patent US5340811A, “Isoquinoline-or quinoline-sulfonamide derivative and a pharmaceutical composition comprising the same” (priority 1990, dated 1994).

For assay [1] the following is noted: known from literature/patents; cited from earlier work.
For assay [2] the following is noted: known from literature/patents; cited from earlier work. The source holds these as a separate data set.
The next assay deals with trachea of a guinea pig. In words: Effect on trachea in vivo: inhibition of histamine-induced tracheal contraction (modified Konzett-Rossler method). The following applies: for suppression of histamine-induced bronchial contraction: contraction induced by intravenous administration of 1 mg/kg of histamine (as printed in text); for inhibition in vivo at 1 mg/kg: Cavia porcellus, iv, 0.05 h, compound 1 mg/kg via femoral vein, histamine 20 μg/kg i.v. after 3 minutes, urethane anesthesia, n=3, non-salt compounds used as hydrochloride. The source says: According to a modified method of Konzett-Rossler method [see J. Martinez et al, Bronchial Arterial Injections, vol. […] Urethane was intraperitoneally administered to male guinea pigs weighing 350 to 600 g (Hartley strain, Kuroda Junkei Dobutsu) in an amount of 1.5 g/kg of body weight to anesthetize the animals. Then, cannulae were inserted into the trachea and femoral vein of each animal under urethane anesthesia and fixed. […] Each of the above-mentioned compounds of the present invention was administered to guinea pigs through the femoral vein in an amount of 1 mg/kg of body weight. […] As a solvent for each compound, physiological saline was used. The number of the guinea pigs tested in each group was 3.

For assay [3], the system named is tracheal specimens excised from guinea pigs. The assay can be described thus: Inhibitory effect on KCl-induced contraction of tracheal specimens excised from guinea pigs. The following applies: Cavia porcellus; dose relaxing KCl (20 mM)-induced contraction to 50%; 37° C.; n=3; non-salt compounds used as hydrochloride; read-out: ED50 (KCl-induced contraction). In kind it is cell-based, guinea pig. The text has this:
According to a method in which tracheal specimens excised from guinea pigs were used (Takagi and Ozawa, "Yakubutsugaku Jikken (Experiments in Pharmacology)", pp.100-102, 1960, published by Nanzando Japan; and Fujiwara and Shibata, "Yakurigaku Kiso Jikenho (Methods of Fundamental Experiments in Pharmacology)" pp.131-134, 1982, published by Kyourin, Japan), relaxing effect of sulfonamide derivatives of the present invention on bronchial smooth muscle was examined. […] After the KCl-induced contraction became stable, each of the compounds of the present invention was dissolved in distilled water or physiological saline, and the compound solution was cumulatively added into the Magnus tube. The relaxing effect of each of the compounds of the present invention on contracted tracheal specimens was evaluated and a dose-response curve was obtained. A dose required for relaxing KCl-induced contraction to 50%, i.e., ED50 was calculated from the dose-response curve. […] The number of tracheal specimens in each group was 3.

For assay [4] the test system is unchanged. In words: Inhibitory effect on PGF2α-induced contraction of tracheal specimens excised from guinea pigs. Type of assay: cell-based, guinea pig. To be noted: Cavia porcellus; dose relaxing PGF2α (final 1 μm)-induced contraction to 50%; n=3; non-salt compounds used as hydrochloride; read-out: PGF2α-induced contraction ED50 (Table 18).
Protocol: Tracheal specimens excised from male guinea pigs weighing 350 to 500 g (Hartley strain, Kuroda Junkei Dobutsu) were contracted in substantially the same manner as in Application Example 1 except that PGF2α (final concentration: 1 μm) was used instead of KCl. After the contraction of the tracheal specimens became stable, each of the compounds (hydrochloride) of the present invention was dissolved in distilled water or physiological saline, and the compound solution was cumulatively added into the Magnus tube in the same manner as in Application Example 1. The relaxing effect of each of the compounds of the present invention on the contracted specimens was evaluated and a dose-response curve was obtained. The dose required for relaxing PGF2α-induced contraction to 50%, i.e., ED50 was calculated form the dose-response curve. […] For comparison, the same procedure as described above was repeated except that aminophylline, comparative compound (1) and comparative compound (2) were individually used instead of the compound of the present invention, to obtain an ED50. The number of specimens in each group was 3.

Where a name gives a salt, the structure may show the parent alone.

In the case of `NC1CCCN(S(=O)(=O)c2cccc3cnccc23)C1` (stereo not shown) [1-(5-isoquinolinesulfonyl)-3-aminopiperidine], the vasodilating activity result in assay [1] is “vasodiletic activity”. Further, the bronchodilating activity entry in assay [2] is “bronchodilating activity”. In the case of `O=S(=O)(NCCNCc1ccc2c(c1)OCO2)c1cccc2cnccc12` [(3), N-[2(3,4-methylenedioxybenzylamino)ethyl]-5-isoquinolinesulfonamide], in the assay on trachea of a guinea pig, the “suppression of histamine-induced bronchial contraction” value (“suppression” below) came out at 36%. The inhibition in vivo is the relative decrease from the control value, in per cent. On to `O=S(=O)(NCCN1CCN(Cc2ccc3c(c2)OCO3)CC1)c1cccc2cnccc12` [(30), 1-(5-isoquinolinesulfonylaminoethyl)-4-(3,4-methylenedioxybenzyl)piperazine], for which the inhibition in vivo at 1 mg/kg in the assay on trachea of a guinea pig was 31%. For `O=S(=O)(NCCN1CCCN(Cc2ccc3c(c2)OCO3)CC1)c1cccc2cnccc12` [(31), 1-(5-isoquinolinesulfonylaminoethyl)-4-(3,4-methylenedioxybenzyl)homopiperazine], in the assay on trachea of a guinea pig, the inhibition in vivo at 1 mg/kg turned out to be 35%.

Turning to `O=S(=O)(NCCN1CCNCC1)c1cccc2c(O)nccc12` [(32), 1-(1-hydroxy-5-isoquinolinesulfonylaminoethyl) piperazine hydrochloride], in assay [3], the EC50 is 27 µM.

As for `O=S(=O)(NCCN1CCCNCC1)c1cccc2c(O)nccc12` [(33), 1-(1-hydroxy-5-isoquinolinesulfonylaminoethyl) homopiperazine hydrochloride], the EC50 in assay [3] was determined as 24 µM. For the compound `O=S(=O)(NCCN1CCCN(Cc2ccc3c(c2)OCO3)CC1)c1cccc2c(O)nccc12` [(35), hydrochloride], the EC50 in assay [3] came out at 18 µM. Consider `O=S(=O)(NCCN1CCCNCC1)c1ccc(Cl)c2ncccc12` [(36), 1-(8-chloro-5-quinolinesulfonylaminoethyl)homopiperazine], for which the inhibition in vivo at 1 mg/kg in the assay with trachea of a guinea pig is 22%. In the case of `O=S(=O)(NCCN1CCCN(Cc2ccc3c(c2)OCO3)CC1)c1ccc(Cl)c2ncccc12` [(38), 1-(8-chloro-5-quinolinesulfonylaminoethyl)-4-(3,4-methylenedioxybenzyl)homopiperazine], in the assay on trachea of a guinea pig, the inhibition in vivo at 1 mg/kg was determined as 45% and the “suppression” value was 45%.

For the compound `Cn1c(=O)c2[nH]cnc2n(C)c1=O` [Aminophylline, aminophylline], the “suppression” value in the assay on trachea of a guinea pig came out at 7%. Moreover, the EC50 in assay [4] is at least 200 µM.

`CCCCCCN(CCN)S(=O)(=O)c1cccc2cnccc12.Cl` [Comparative compound (1), N-(2-aminoethyl)-N-hexyl-5-isoquinolinesulfonamide hydrochloride]: the “suppression” value in the assay on trachea of a guinea pig stood at 9%. For `Cl.NC1CCCN(S(=O)(=O)c2cccc3cnccc23)C1` (stereo not shown) [Comparative compound (2), 1-(5-isoquinolinesulfonyl)-3-aminopiperidine hydrochloride], the “suppression” value in the assay with trachea of a guinea pig is given as 12%.

Regarding `CCCCCCN(CCN)S(=O)(=O)c1cccc2cnccc12` [N-(2-aminoethyl)-N-hexyl-5-isoquinolinesulfonamide], the vasodilating activity entry in assay [1] is “vasodiletic activity”. In assay [2], the bronchodilating activity entry is on record as “bronchodilating activity”. Take `N=C(N)NCCNS(=O)(=O)c1cccc2cnccc12` [N-(2-guanidinoethyl)-5-isoquinolinesulfonamide]: in assay [1], the vasodilating activity entry was “vasodiletic activity”. For the same compound, the bronchodilating activity result in assay [2] is listed as “bronchodilating activity”.
